Our source for the IC50 values is US20250171454A1, “HETEROBIFUNCTIONAL […] AMINOPURINE AND RELATED COMPOUNDS AND THEIR USE IN NSD2 DEGRADATION AND TREATING MEDICAL CONDITIONS” (K36 Therapeutics, Inc., priority 2023, published 2025).

Bounds are passed on as bounds.

This test concerns the target recombinant human NSD2 (amino acids 2-end) with N-terminal His tag (Homo sapiens (Human), UniProt O96028). As to the kind of experiment: NSD2 inhibitory activity, modified RBC HotSpot HMT Assay. It is filed as biochemical. The conditions noted are these: NSD2 2 nM, chicken oligonucleosomes 0.05 mg/mL, 3H-SAM 1 μM, 1 hour at 30° C. The procedure: Exemplary compounds were tested for NSD2 inhibitory activity using a modified RBC HotSpot HMT Assay.
A reaction mixture was prepared by adding oligonucleosomes from chicken (0.05 mg/mL) to freshly prepared reaction buffer containing 50 mM Tris-HCl (pH 8.5), 50 mM NaCl, 5 mM MgCl2, 0.01% Brij35, 1 mM DTT, and 1% DMSO followed by the addition of recombinant human NSD2 (amino acids 2-end) with N-terminal His tag (2 nM; GenBank Accession No. NM_001042424; MW=155.5 kDa; expressed in Sf9 insect cells) and gentle mixing. The test compounds were diluted in DMSO (to 10 mM), and added to the reaction mixture in nanoliter amounts by using Acoustic Technology (Echo 550, LabCyte Inc. Sunnyvale, CA) and incubated for 20 minutes at room temperature. […] The reaction mixture was delivered to filter paper, and the methylated substrate was quantified by scintillation counting.
Data analysis was performed using Excel and GraphPad Prism software for IC50 curve fits. For additional information on the histone methyltransferase assay, see, for example, Horiuchi K Y, et al., “Assay Development for Histone Methyltransferases,” Assay Drug Dev Technol.

Sequence of recombinant human NSD2 (amino acids 2-end) with N-terminal His tag (O96028 2-1365 limits assumed): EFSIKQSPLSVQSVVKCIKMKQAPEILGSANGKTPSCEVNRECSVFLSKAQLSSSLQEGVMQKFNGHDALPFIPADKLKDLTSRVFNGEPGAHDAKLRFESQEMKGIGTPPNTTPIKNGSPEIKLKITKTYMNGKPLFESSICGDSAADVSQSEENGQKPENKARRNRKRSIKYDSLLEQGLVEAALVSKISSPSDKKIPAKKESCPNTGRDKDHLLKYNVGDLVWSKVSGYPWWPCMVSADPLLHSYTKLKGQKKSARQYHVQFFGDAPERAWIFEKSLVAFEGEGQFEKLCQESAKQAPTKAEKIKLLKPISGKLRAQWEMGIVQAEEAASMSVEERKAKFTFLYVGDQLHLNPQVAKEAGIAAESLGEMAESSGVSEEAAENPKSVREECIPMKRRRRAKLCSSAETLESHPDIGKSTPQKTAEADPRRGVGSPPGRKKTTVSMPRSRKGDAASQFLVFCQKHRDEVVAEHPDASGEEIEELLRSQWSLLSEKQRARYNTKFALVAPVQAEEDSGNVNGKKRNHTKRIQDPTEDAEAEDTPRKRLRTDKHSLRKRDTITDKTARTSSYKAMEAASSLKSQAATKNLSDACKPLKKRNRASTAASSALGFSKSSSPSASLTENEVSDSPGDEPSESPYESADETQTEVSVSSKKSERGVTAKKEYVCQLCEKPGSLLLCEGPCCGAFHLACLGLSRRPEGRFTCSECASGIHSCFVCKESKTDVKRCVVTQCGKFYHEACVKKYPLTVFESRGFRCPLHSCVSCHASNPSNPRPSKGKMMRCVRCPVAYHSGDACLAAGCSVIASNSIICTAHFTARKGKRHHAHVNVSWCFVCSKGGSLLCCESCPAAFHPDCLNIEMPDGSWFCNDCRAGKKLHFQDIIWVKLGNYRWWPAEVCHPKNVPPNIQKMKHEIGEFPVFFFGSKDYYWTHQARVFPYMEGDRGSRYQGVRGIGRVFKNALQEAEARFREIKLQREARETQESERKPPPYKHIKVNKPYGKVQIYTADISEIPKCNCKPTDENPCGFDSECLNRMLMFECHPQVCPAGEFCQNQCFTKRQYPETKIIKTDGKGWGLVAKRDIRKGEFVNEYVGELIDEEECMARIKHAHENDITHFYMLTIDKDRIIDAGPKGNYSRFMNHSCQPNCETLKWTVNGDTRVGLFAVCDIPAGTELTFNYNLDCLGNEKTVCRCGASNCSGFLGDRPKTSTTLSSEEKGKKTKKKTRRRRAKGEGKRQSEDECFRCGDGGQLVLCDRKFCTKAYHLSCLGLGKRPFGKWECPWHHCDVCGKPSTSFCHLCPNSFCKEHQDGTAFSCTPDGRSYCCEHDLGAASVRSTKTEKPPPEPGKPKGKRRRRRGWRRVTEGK

As for `Nc1ncnc2c1ncn2Cc1cc(-c2cc(F)c(OCCCCNc3cccc4c3C(=O)N(C3CCC(=O)NC3=O)C4=O)cc2F)ncc1N1CCC[C@](N)([C@H](O)C(F)F)C1` (stereo partly drawn) [I-61, 4-((4-(4-(5-((R)-3-amino-3-((S)-2,2-difluoro-1-hydroxyethyl)piperidin-1-yl)-4-((6-amino-9H-purin-9-yl)methyl)pyridin-2-yl)-2,5-difluorophenoxy)butyl)amino)-2-(2,6-dioxopiperidin-3-yl)isoindoline-1,3-dione], the 50% inhibitory concentration (IC50) is below 50 nM. Turning to `Nc1ncnc2c1ncn2Cc1cc(-c2cc(F)c(OCCCCCNc3cccc4c3C(=O)N(C3CCC(=O)NC3=O)C4=O)cc2F)ncc1N1CCC[C@](N)([C@H](O)C(F)F)C1` (stereo partly drawn) [I-62, 4-((5-(4-(5-((R)-3-amino-3-((S)-2,2-difluoro-1-hydroxyethyl)piperidin-1-yl)-4-((6-amino-9H-purin-9-yl)methyl)pyridin-2-yl)-2,5-difluorophenoxy)pentyl)amino)-2-(2,6-dioxopiperidin-3-yl)isoindoline-1,3-dione], the IC50 was in the range of 50 to 100 nM. Turning to `Nc1ncnc2c1ncn2Cc1cc(-c2cc(F)c(OCCCCCCNc3cccc4c3C(=O)N(C3CCC(=O)NC3=O)C4=O)cc2F)ncc1N1CCC[C@](N)([C@H](O)C(F)F)C1` (stereo partly drawn) [I-63, 4-((6-(4-(5-((R)-3-amino-3-((S)-2,2-difluoro-1-hydroxyethyl)piperidin-1-yl)-4-((6-amino-9H-purin-9-yl)methyl)pyridin-2-yl)-2,5-difluorophenoxy)hexyl)amino)-2-(2,6-dioxopiperidin-3-yl)isoindoline-1,3-dione], the IC50 is 100 to 1000 nM. With `Nc1ncnc2c1ncn2Cc1cc(-c2cc(F)c(OCC(=O)Nc3cccc4c3C(=O)N(C3CCC(=O)NC3=O)C4=O)cc2F)ncc1N1CCC[C@](N)([C@H](O)C(F)F)C1` (stereo partly shown) [I-64] the figure was below 50 nM. Consider `Nc1ncnc2c1ncn2Cc1cc(-c2cc(F)c(OCC(=O)NCCNc3cccc4c3C(=O)N(C3CCC(=O)NC3=O)C4=O)cc2F)ncc1N1CCC[C@](N)([C@H](O)C(F)F)C1` (stereo partly drawn) [I-65, 2-(4-(5-((R)-3-amino-3-((S)-2,2-difluoro-1-hydroxyethyl)piperidin-1-yl)-4-((6-amino-9H-purin-9-yl)methyl)pyridin-2-yl)-2,5-difluorophenoxy)-N-(2-((2-(2,6-dioxopiperidin-3-yl)-1,3-dioxoisoindolin-4-yl)amino)ethyl)acetamide], for which the IC50 is below 50 nM. With `Nc1ncnc2c1ncn2Cc1cc(-c2cc(F)c(OCC(=O)NCCCNc3cccc4c3C(=O)N(C3CCC(=O)NC3=O)C4=O)cc2F)ncc1N1CCC[C@](N)([C@H](O)C(F)F)C1` (stereo partly drawn) [I-66, 2-(4-(5-((R)-3-amino-3-((S)-2,2-difluoro-1-hydroxyethyl)piperidin-1-yl)-4-((6-amino-9H-purin-9-yl)methyl)pyridin-2-yl)-2,5-difluorophenoxy)-N-(3-((2-(2,6-dioxopiperidin-3-yl)-1,3-dioxoisoindolin-4-yl)amino)propyl)acetamide] the figure was below 50 nM; with `Nc1ncnc2c1ncn2Cc1cc(-c2cc(F)c(OCCCCNc3cccc4c3C(=O)N(C3CCC(=O)NC3=O)C4=O)c(F)c2)ncc1N1CCC[C@](N)(c2ccccn2)C1` (stereo partly drawn) [I-67, 4-((4-(4-(5-((R)-3-amino-3-(pyridin-2-yl)piperidin-1-yl)-4-((6-amino-9H-purin-9-yl)methyl)pyridin-2-yl)-2,6-difluorophenoxy)butyl)amino)-2-(2,6-dioxopiperidin-3-yl)isoindoline-1,3-dione], below 50 nM; with `Nc1ncnc2c1ncn2Cc1cc(-c2cc(F)c(OCCCCNc3cccc4c3C(=O)N(C3CCC(=O)NC3=O)C4=O)c(F)c2)ncc1N1CCC[C@@](N)(c2ccccn2)C1` (stereo partly drawn) [I-68, 4-((4-(4-(5-((S)-3-amino-3-(pyridin-2-yl)piperidin-1-yl)-4-((6-amino-9H-purin-9-yl)methyl)pyridin-2-yl)-2,6-difluorophenoxy)butyl)amino)-2-(2,6-dioxopiperidin-3-yl)isoindoline-1,3-dione], above 1000 nM. For `Nc1ncnc2c1ncn2Cc1cc(-c2cc(F)c(OCCCCCNc3cccc4c3C(=O)N(C3CCC(=O)NC3=O)C4=O)c(F)c2)ncc1N1CCC[C@](N)(c2ccccn2)C1` (stereo partly drawn) [I-69, 4-((5-(4-(5-((R)-3-amino-3-(pyridin-2-yl)piperidin-1-yl)-4-((6-amino-9H-purin-9-yl)methyl)pyridin-2-yl)-2,6-difluorophenoxy)pentyl)amino)-2-(2,6-dioxopiperidin-3-yl)isoindoline-1,3-dione] the value was below 50 nM; for `Nc1ncnc2c1ncn2Cc1cc(-c2cc(F)c(OCCCCCNc3cccc4c3C(=O)N(C3CCC(=O)NC3=O)C4=O)c(F)c2)ncc1N1CCC[C@@](N)(c2ccccn2)C1` (stereo partly shown) [I-70], above 1000 nM; for `Nc1ncnc2c1ncn2Cc1cc(-c2cc(F)c(OCCCCCCNc3cccc4c3C(=O)N(C3CCC(=O)NC3=O)C4=O)c(F)c2)ncc1N1CCC[C@](N)(c2ccccn2)C1` (stereo partly drawn) [I-71, 4-((6-(4-(5-((R)-3-amino-3-(pyridin-2-yl)piperidin-1-yl)-4-((6-amino-9H-purin-9-yl)methyl)pyridin-2-yl)-2,6-difluorophenoxy)hexyl)amino)-2-(2,6-dioxopiperidin-3-yl)isoindoline-1,3-dione], below 50 nM. For `COc1cc(F)c(-c2cc(Cn3cnc4c(NCCCCCNc5cccc6c5C(=O)N(C5CCC(=O)NC5=O)C6=O)ncnc43)c(N3CCC[C@](N)([C@H](O)C(F)F)C3)cn2)cc1F` (stereo partly drawn) [I-76, 4-((5-((9-((5-((R)-3-amino-3-((S)-2,2-difluoro-1-hydroxyethyl)piperidin-1-yl)-2-(2,5-difluoro-4-methoxyphenyl)pyridin-4-yl)methyl)-9H-purin-6-yl)amino)pentyl)amino)-2-(2,6-dioxopiperidin-3-yl)isoindoline-1,3-dione] the value was above 1000 nM; for `COc1cc(F)c(-c2cc(Cn3cnc4c(NCCCCCCNc5cccc6c5C(=O)N(C5CCC(=O)NC5=O)C6=O)ncnc43)c(N3CCC[C@](N)([C@H](O)C(F)F)C3)cn2)cc1F` (stereo partly drawn) [I-77, 4-((6-((9-((5-((R)-3-amino-3-((S)-2,2-difluoro-1-hydroxyethyl)piperidin-1-yl)-2-(2,5-difluoro-4-methoxyphenyl)pyridin-4-yl)methyl)-9H-purin-6-yl)amino)hexyl)amino)-2-(2,6-dioxopiperidin-3-yl)isoindoline-1,3-dione], above 1000 nM. With `COc1c(F)cc(-c2cc(Cn3cnc4c(NCCCCCNc5cccc6c5C(=O)N(C5CCC(=O)NC5=O)C6=O)ncnc43)c(N3CCC[C@](N)(c4ccccn4)C3)cn2)cc1F` (stereo partly drawn) [I-79, 4-((5-((9-((5-((R)-3-amino-3-(pyridin-2-yl)piperidin-1-yl)-2-(3,5-difluoro-4-methoxyphenyl)pyridin-4-yl)methyl)-9H-purin-6-yl)amino)pentyl)amino)-2-(2,6-dioxopiperidin-3-yl)isoindoline-1,3-dione], the IC50 was 100 to 1000 nM. Take `COc1c(F)cc(-c2cc(Cn3cnc4c(NCCCCCCNc5cccc6c5C(=O)N(C5CCC(=O)NC5=O)C6=O)ncnc43)c(N3CCC[C@](N)(c4ccccn4)C3)cn2)cc1F` (stereo partly drawn) [I-80, 4-((6-((9-((5-((R)-3-amino-3-(pyridin-2-yl)piperidin-1-yl)-2-(3,5-difluoro-4-methoxyphenyl)pyridin-4-yl)methyl)-9H-purin-6-yl)amino)hexyl)amino)-2-(2,6-dioxopiperidin-3-yl)isoindoline-1,3-dione]: the IC50 was above 1000 nM. Turning to `COc1c(F)cc(-c2cc(Cn3cnc4c(NCCCCCCNc5cccc6c5C(=O)N(C5CCC(=O)NC5=O)C6=O)ncnc43)c(N3CCC[C@@](N)(c4ccccn4)C3)cn2)cc1F` (stereo partly drawn) [I-81, 4-((6-((9-((5-((S)-3-amino-3-(pyridin-2-yl)piperidin-1-yl)-2-(3,5-difluoro-4-methoxyphenyl)pyridin-4-yl)methyl)-9H-purin-6-yl)amino)hexyl)amino)-2-(2,6-dioxopiperidin-3-yl)isoindoline-1,3-dione], the IC50 was in the range of 50 to 100 nM. For `COc1c(F)cc(-c2cc(Cn3cnc4c(NCCCCCCCNc5cccc6c5C(=O)N(C5CCC(=O)NC5=O)C6=O)ncnc43)c(N3CCC[C@](N)(c4ccccn4)C3)cn2)cc1F` (stereo partly drawn) [I-82, 4-((7-((9-((5-((R)-3-amino-3-(pyridin-2-yl)piperidin-1-yl)-2-(3,5-difluoro-4-methoxyphenyl)pyridin-4-yl)methyl)-9H-purin-6-yl)amino)heptyl)amino)-2-(2,6-dioxopiperidin-3-yl)isoindoline-1,3-dione], the IC50 was above 1000 nM. With `Cc1ncsc1-c1ccc(CNC(=O)[C@@H]2C[C@@H](O)CN2C(=O)[C@@H](NC(=O)CCOCCOCCOCCOc2cc(F)c(-c3cc(Cn4cnc5c(N)ncnc54)c(N4CCC[C@](N)([C@H](O)C(F)F)C4)cn3)cc2F)C(C)(C)C)cc1` [I-84] the figure was 100 to 1000 nM; with `Cc1ncsc1-c1ccc(CNC(=O)[C@@H]2C[C@@H](O)CN2C(=O)[C@@H](NC(=O)CCCCCCCCCCCOc2cc(F)c(-c3cc(Cn4cnc5c(N)ncnc54)c(N4CCC[C@](N)([C@H](O)C(F)F)C4)cn3)cc2F)C(C)(C)C)cc1` [I-85], 100 to 1000 nM.

By IC50 is commonly meant the concentration that inhibits the measured activity by half.
